The values that follow come from PubChem BioAssay (NCI).

Where “and” joins values, the source holds several entries; their conditions need not be identical. Equal values may be shown once.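 Compound exposure: 48 hours, 5 concentrations, 96-well plates. At the GI50, growth is halved. At the TGI there is no net growth.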

By TGI is commonly meant the concentration at which net growth stops. A higher TGI goes with lower sensitivity of the cells. In general, GI50 refers to the concentration at which growth is held to half of that of the control.

What all share (assay): DTP human tumour cell line panel, 48 h
Test [1] deals with EKVX NSCLC.
In test [2] the test system is NCI-H460 lung.
In test [3] the test system is RPMI-8226 leukemia.
The subject of test [4] is A498 renal.
Test [5] concerns MCF7 breast.
The subject of test [6] is UACC-257 melanoma.
The subject of test [7] is ACHN renal.
Test [8] relates to UACC-62 melanoma.
For test [9], the system named is SK-MEL-2 melanoma.
Test [10] relates to SK-MEL-28 melanoma.

With `Nc1ccc2c(SCC(=O)Nc3ccccc3-c3ccccc3NC(=O)CSc3c4ccccc4nc4cc(N)ccc34)c3ccccc3nc2c1`, the concentration for total growth inhibition (TGI) in test [1] was over 100 µM; in [2], 97.8 µM; in test [3] it was 38.6 µM; in test [4], 65.9 µM; in [5], over 100 µM; in test [6] it was 71.9 µM. The TGI was over 86.6 µM in test [7], 56.5 µM in test [8], 68 µM in test [9] and 52.5 µM in [10].

As to `NCCn1c2c(c3ccccc3c1=O)C(=O)c1ccccc1-2`, the GI50 in [1] is 1.48 µM; in test [3], 0.338 µM; in test [4], 0.476 µM; in test [5], 0.292 µM; in [6] it was 0.64 µM; in test [7], under 0.0453 µM. In addition, the GI50 in [8] is 0.833 µM; in [9], 2.7 µM; in [10] it was 1.46 µM. Further, the TGI in test [1] was 4.48 µM; in [2] it was 6.4 µM; in test [3], 1.5 µM; in test [4], 5.49 µM; in [5] it was 12.6 µM; in [6] it was 2.64 µM. Moreover, the TGI in test [7] worked out at 0.31 µM; in test [8], 5.69 µM; in test [9], 9.71 µM; in test [10] it was 3.14 µM.

On to `Cc1ccc2c(C(C[N+](=O)[O-])c3ccco3)c(-c3ccccc3)[nH]c2c1` (stereo not drawn), for which the GI50 in [1] was 55 µM; in test [2], 26.7 µM; in [3], 53.7 µM; in test [4], 4.02 µM; in [5] it was 9.09 µM; in test [6], over 100 µM. Also, the GI50 is 41.4 µM in test [7], 26.8 µM in [8], 38.2 µM in test [9] and 98.9 µM in test [10]. The TGI in test [1] is over 100 µM; in [2] it was over 100 µM; in test [3], over 100 µM; in test [4], 74.3 µM; in test [5], over 100 µM; in test [6], over 100 µM. Besides, the TGI in test [7], in test [8], in test [9] and in test [10] was over 100 µM throughout.

As for `C/C(=N\O)[C@H]1CC[C@@]2(C)[C@@H]3CC[C@H]4C(C)(C)/C(=N/O)CC[C@@]45CC35CC[C@]12C` (stereo partly drawn), the GI50 in test [1] was 5.66 µM; in [2], 5.05 µM; in test [3], 0.696 µM; in test [4] it was 2.46 µM; in test [5] it was 5.82 µM; in [6], 5.53 µM. Also, the GI50 in [7] is 2.51 µM; in test [8], 5.44 µM; in test [9], 13.4 µM; in test [10], 4.34 µM. For the same compound, the TGI in [1] is over 16.7 µM; in test [2], over 16.7 µM; in test [3], 6.17 µM; in [4], 5.87 µM; in [5], over 16.7 µM; in test [6], 10.1 µM. In addition, the TGI in test [7] was 4.97 µM; in test [8], over 16.7 µM; in test [9] it was over 16.7 µM; in [10] it was 14.2 µM.

Consider `CC(C)(C)OC(=O)n1c(Cl)c(C(=O)N=C=S)c2ccccc21`, for which the GI50 in [1] is 29.6 µM; in [2], 39.6 µM; in test [3], 24.4 µM; in [4], 92.6 µM; in [5], 37.2 µM; in test [6], 55.4 µM. Moreover, the GI50 in [7] was 29.5 µM; in test [8] it was 28.8 µM; in [9], 24.7 µM; in [10] it was 80.7 µM. The TGI in [1] is 98.7 µM; in [2], over 100 µM; in test [3], 87.4 µM; in test [4], over 100 µM; in [5] it was over 100 µM; in test [6] it was over 100 µM. Further, the TGI is over 100 µM in [7], 79 µM in test [8], 75.8 µM in test [9] and over 100 µM in test [10].

For `Cc1ccc(-c2cc(C(Cl)Cl)on2)cc1`, the GI50 is 46.1 µM in test [1]; 49.1 µM in [2]; 33.8 µM in test [3]; 42.7 µM in test [4]; 97.6 µM in test [5]; 67.7 µM in [6]. Also, the GI50 in [7] is 33.5 µM; in test [8] it was 66.8 µM; in [9], over 100 µM; in test [10], over 100 µM. In addition, the TGI in test [1], in test [2], in test [3], in test [4], in [5] and in test [6] was over 100 µM each time. Moreover, the total growth inhibition concentration (TGI) in test [7], in [8], in test [9] and in [10] was over 100 µM throughout.

For the compound `CCCCCCCCCCCCNC(=O)[C@H]1CSC(c2ccsc2)N1` (stereo partly drawn), the GI50 is 0.991 µM in test [1]; 0.986 µM in test [2]; 1.72 µM in test [3]; 9.62 µM in [4]; 0.879 µM in [5]; 0.946 µM in test [6]. Besides, the GI50 in test [7] is 0.938 µM; in test [8], 0.929 µM; in [9] it was 0.974 µM; in [10] it was 0.814 µM. The TGI in [1] was 1.85 µM; in test [2], 1.84 µM; in test [3] it was 5.69 µM; in test [4], 17.1 µM; in test [5], 1.71 µM; in test [6], 1.7 µM. The TGI amounted to 1.75 µM in [7], 1.82 µM in test [8], 1.76 µM in [9] and 1.54 µM in [10].

As to `NC1(C(=O)O)CSSC1`, the GI50 in test [1] was 4.49 µM; in test [2] it was 3 µM; in test [3], 16.8 µM; in [4], 2.53 µM; in [5], 3.65 µM; in test [6], 3.85 µM. The GI50 was 3.63 µM in test [7], 4.53 µM in [8], 2.66 µM in test [9] and 3.14 µM in test [10]. For the same compound, the TGI in test [1] was 35 µM; in test [2] it was over 100 µM; in test [3], 50.8 µM; in [4], 7.27 µM; in [5], 23.9 µM; in test [6] it was 22.7 µM. Also, the TGI turned out to be 14.2 µM in test [7], 20.1 µM in test [8], 7.95 µM in test [9] and 10.7 µM in test [10].

Turning to `COc1ccc(-c2conc2-c2ccccc2)cc1`, the GI50 is 2.64 µM in test [1]; 0.324 µM in test [2]; 0.453 µM in [3]; 0.107 µM in [4]; 0.0865 µM in test [5]; 18.3 µM in [6]. Also, the GI50 in test [7] was 1.1 µM; in test [8] it was 0.689 µM; in [9] it was 0.585 µM; in [10], 10.8 µM. Also, the TGI in test [1] is over 100 µM; in test [2], 4.37 µM; in test [3] it was 41.9 µM; in test [4] it was 0.58 µM; in [5], over 100 µM; in test [6] it was over 100 µM. For the same compound, the TGI in [7], in test [8], in test [9] and in test [10] was over 100 µM in each case.

On to `N#CC1=C(N)Oc2c(sc3c(Br)cccc23)C1c1ccc(F)cc1` (stereo not drawn), for which the GI50 in test [1] was 0.534 µM; in test [2], 0.376 µM; in [3] it was 0.482 µM; in test [4], 0.314 µM; in test [5], 0.273 µM; in [6], 13 µM. Further, the GI50 was 0.682 µM in [7], 0.512 µM in test [8], 0.487 µM in [9] and 1.61 µM in test [10]. Further, the TGI was 23.2 µM in test [1]; 14.6 µM in test [2]; 19.7 µM in test [3]; 16.7 µM in [4]; 14.3 µM in test [5]; 42.7 µM in test [6]. The total growth inhibition concentration (TGI) came to 17 µM in test [7], 23.5 µM in test [8], 31.1 µM in test [9] and 28.2 µM in [10].

Regarding `COc1ccc(-c2cn(-c3cc(OC)c(OC)c(OC)c3)c(=O)n2-c2ccccc2)cc1`, the GI50 is over 100 µM in [1]; over 100 µM in test [2]; over 100 µM in test [3]; over 100 µM in test [4]; 86 µM in test [5]; over 100 µM in test [6]. Moreover, the GI50 in [7] was over 100 µM; in test [8], 53 µM; in test [9] it was over 100 µM; in test [10], over 100 µM. The TGI in [1], in test [2], in [3], in test [4], in test [5] and in [6] was over 100 µM each time. Moreover, the TGI in test [7], in test [8], in test [9] and in test [10] was over 100 µM in each case.

With `O=C1c2c(O)ccc(O)c2C(=O)c2c(NCCNCCO)ccc(NCCNCCO)c21`, the GI50 in [1] was 0.564 µM; in test [4] it was 0.0721 µM; in [5], < 0.01 µM and < 0.005 µM and 0.00426 µM; in test [6], 0.82 µM. For the same compound, the TGI in test [1] is 3.68 µM and 4.55 µM and 1.28 µM; in [2] it was 0.274 µM and 0.332 µM and 0.484 µM; in test [3] it was 1.15 µM and 6.39 µM and 3.55 µM; in test [4] it was 0.555 µM and 0.588 µM and 0.59 µM; in test [5] it was 0.64 µM and 0.663 µM and 1.23 µM; in [6], 4.61 µM and 6.14 µM and 7.32 µM. For the same compound, the TGI is 0.123 µM and 0.783 µM and 0.229 µM in test [7]; 0.218 µM and 0.756 µM and 0.595 µM in test [8]; 0.657 µM and 0.6 µM and 0.926 µM in test [9]; 1.66 µM and 1.03 µM and 2.31 µM in [10].

`COc1ccc(C2NC(=S)NC3=C2COc2ccc(F)cc23)cc1OC` (stereo not drawn): the GI50 is 29.8 µM in test [1]; 24.1 µM in test [2]; 13.5 µM in test [3]; 13.4 µM in test [4]; 31.2 µM in test [5]; 14.2 µM in test [6]. Besides, the GI50 is 13 µM in [7], 14.8 µM in test [8], 55.4 µM in test [9] and 41.2 µM in test [10]. Besides, the TGI was over 100 µM in test [1]; over 100 µM in test [2]; over 100 µM in test [3]; 36.1 µM in test [4]; over 100 µM in test [5]; 45.4 µM in test [6]. Further, the TGI is 39.2 µM in test [7], 41.8 µM in test [8], over 100 µM in test [9] and over 100 µM in [10].

As for `CN1CCN(CCCOc2ccc3ncnc(Nc4ccc(Oc5cccc(F)c5)c(Cl)c4)c3c2)CC1`, the GI50 in [1] was 1.31 µM; in test [2], 1.77 µM; in test [3], 1.58 µM; in test [4], 1.25 µM; in [5], 1.57 µM; in test [6] it was 1.96 µM. Further, the GI50 in test [7] was 1.02 µM; in [8] it was 1.75 µM; in [9] it was 1.95 µM; in test [10] it was 1.7 µM. Besides, the TGI in test [1] was 3.56 µM; in test [2] it was 3.3 µM; in test [3] it was 4.86 µM; in test [4], 2.74 µM; in test [5] it was 3.31 µM; in test [6], 4.06 µM. Also, the TGI in test [7] was determined as 2.19 µM; in test [8], 3.27 µM; in [9] it was 4.04 µM; in test [10] it was 3.11 µM.

`CCOc1cccc(/C=N/NC(=O)Cc2ccc(Nc3ccnc(C(F)(F)F)c3)cc2)c1O`: the GI50 is 3.87 µM in test [1]; 1.71 µM in test [2]; 0.519 µM in test [3]; 4.62 µM in test [4]; 2.39 µM in test [5]; 6.84 µM in [6]. The GI50 is 1.53 µM in test [7], 1.64 µM in [8], 11.4 µM in test [9] and 2.97 µM in test [10]. Further, the TGI in test [1] was over 100 µM; in [2] it was 13.5 µM; in test [3], 17.4 µM; in [4], 67 µM; in [5] it was over 100 µM; in test [6] it was over 100 µM. The TGI was over 100 µM in test [7], 14.7 µM in [8], 45 µM in test [9] and over 100 µM in test [10].
